Laboratory results published in PMC10940605, “Design, synthesis and in vitro anticancer activity of some new lomefloxacin derivatives” (Scientific Reports, 2024).

Columns and labels:
[1] = test system: 60 human cancer cell lines; assay: NCI-60 SRB screen, whole panel; format: cell-based; settings: Homo sapiens, 48 h; One Dose Mean Graph, Conc 1.00E-5 Molar; read-out: Mean Growth Percent
UO-31 = assay: NCI-60 SRB screen; format: cell-based; settings: Homo sapiens; UO-31, 10^–5 Molar; read-out: Percent growth inhibition
Experimental: (§1) All newly synthesized compounds were selected and screened for anticancer activity against 60 human cancer cell lines representing 9 types of tumors including leukemia, melanoma, lung, colon, CNS, ovarian, renal, prostate, and breast cancers at the National Cancer Institute (NCI), Bethesda, USA. Screening was performed utilizing a single dose (10^−5 M concentration) and cells were incubated for 48 h. The end point was determined using sulforhodamine B (SRB) dye.
(§2) In this study, all the 16 newly synthesized compounds were submitted to the National Cancer Institute (USA) for anticancer evaluation and were selected and evaluated using 60 different human tumor cell lines representing lung, colon, CNS, ovarian, renal, prostate, breast cancers as well as leukemia and melanoma. A single dose (10^–5 Molar) was used for the initial screening for evaluation of anticancer activity. The 60 human cancer cell lines were provided by the national cancer institute biomedical research campus in Frederick, Maryland.
(§3) 60 different human cancer cell lines were utilized to screen the newly synthesized compounds for anticancer activity according to the previously reported standard procedure[24]–[26] as follows: • 96 well microtiter plates were used to inoculate the cells at […] ranging from 4000–5000 cells/well depending on the replication time of individual cell lines. Roswell Park Memorial Institute culture medium (RPMI 1640 medium) containing 2 mM L-glutamine and fetal bovine serum was used to grow the cells at 37 °C, 5% CO2, 95% air and 100% relative humidity for 24 h. • Fixation of cells in two plates of each cell line in situ was done using trichloroacetic acid (TCA). This represented the measurement of cell population at the time of drug addition (Tz). • Dimethyl sulfoxide (DMSO) was used to dissolve the synthesized compounds at 400-fold the desired final maximum concentration and frozen prior to use. This frozen concentrate was melted and diluted to twice the final concentration with complete medium containing 50 µg/mL gentamycin at time of drug addition. • The final compound concentration was obtained by adding 100 µL of the synthesized compounds to the appropriate microtiter wells already containing 100 µL followed by incubation of the plates at 37 °C, 5% CO2, 95% air and 100% relative humidity for 48 h. • Fixation of the cells was achieved by gentle addition of 50 µL of cold 50% (w/v) TCA followed by incubation for 60 min at 4 °C. The supernatant was then discarded and the plates are washed 5 times with tap water and air dried. • Sulphorhodamine B (SRB) solution (100 µL) at 0.4% (w/v) in 1% acetic acid was added to each plate followed by incubation for 10 min at room temperature. The unbound dye was then removed by washing five times with 1% acetic acid and plates were air dried. • Dissolution of the bound stain was done using […] trizma base and the absorbance was read at […] wavelength using an automated plate reader. • The percentage growth inhibition was calculated as follows: Ti-Tz/C-Tz×100forconcentrationswhichTi≥Tz Ti-Tz/Tz×100forconcentrationswhichTi<Tz • Time zero (Tz) • Control growth (C) • Test growth in the presence of drug (Ti)

SF-268 = assay: NCI-60 SRB screen; format: cell-based; settings: Homo sapiens; SF-268, 10^–5 Molar; read-out: Percent growth inhibition
Experimental: as §1, §2, §3

SW-620 = assay: NCI-60 SRB screen; format: cell-based; settings: Homo sapiens; SW-620, 10^–5 Molar; read-out: Percent growth inhibition
Experimental: as §1, §2, §3

NCI-H322M = assay: NCI-60 SRB screen; format: cell-based; settings: Homo sapiens, 10^–5 Molar, read-out: Percent growth inhibition
Experimental: as §1, §2, §3

MDA-MB-468 = assay: NCI-60 SRB screen; format: cell-based; settings: Homo sapiens; MDA-MB-468, 10^–5 Molar; read-out: Percent growth inhibition
Experimental: as §1, §2, §3

leukemia SR = assay: NCI-60 SRB screen; format: cell-based; settings: Homo sapiens; SR, 10^–5 Molar; read-out: Percent growth inhibition
Experimental: as §1, §2, §3

CAKI-1 = assay: NCI-60 SRB screen; format: cell-based; settings: Homo sapiens; CAKI-1, 10^–5 Molar; read-out: Percent growth inhibition
Experimental: as §1, §2, §3

NCI-H226 = assay: NCI-60 SRB screen; format: cell-based; settings: Homo sapiens; NCI-H226, 10^–5 Molar; read-out: Percent growth inhibition
Experimental: as §1, §2, §3

UACC-62 = assay: NCI-60 SRB screen; format: cell-based; settings: Homo sapiens; UACC-62, 10^–5 Molar; read-out: Percent growth inhibition
Experimental: as §1, §2, §3

MDA-MB-231/ATCC = assay: NCI-60 SRB screen; format: cell-based; settings: Homo sapiens, 10^–5 Molar, read-out: Percent growth inhibition
Experimental: as §1, §2, §3

786-0 = assay: NCI-60 SRB screen; format: cell-based; settings: Homo sapiens; 786-0, 10^–5 Molar; read-out: Percent growth inhibition
Experimental: as §1, §2, §3

LOX IMVI = assay: NCI-60 SRB screen; format: cell-based; settings: Homo sapiens, 10^–5 Molar, read-out: Percent growth inhibition
Experimental: as §1, §2, §3

SNB-75 = assay: NCI-60 SRB screen; format: cell-based; settings: Homo sapiens; SNB-75, 10^–5 Molar; read-out: Percent growth inhibition
Experimental: as §1, §2, §3

T-47D = assay: NCI-60 SRB screen; format: cell-based; settings: Homo sapiens, T47D, 10^–5 Molar, read-out: Percent growth inhibition
Experimental: as §1, §2, §3

PC-3 = assay: NCI-60 SRB screen; format: cell-based; settings: Homo sapiens; PC-3, 10^–5 Molar; read-out: Percent growth inhibition
Experimental: as §1, §2, §3

SN12C = assay: NCI-60 SRB screen; format: cell-based; settings: Homo sapiens, 10^–5 Molar, read-out: Percent growth inhibition
Experimental: as §1, §2, §3

MCF7 = assay: NCI-60 SRB screen; format: cell-based; settings: Homo sapiens; MCF7, 10^–5 Molar; read-out: Percent growth inhibition
Experimental: as §1, §2, §3

SF-539 = assay: NCI-60 SRB screen; format: cell-based; settings: Homo sapiens; SF-539, 10^–5 Molar; read-out: Percent growth inhibition
Experimental: as §1, §2, §3

melanoma SK-MEL-5 = assay: NCI-60 SRB screen; format: cell-based; settings: Homo sapiens; SK-MEL-5, 10^–5 Molar; read-out: Percent growth inhibition
Experimental: as §1, §2, §3

OVCAR-5 = assay: NCI-60 SRB screen; format: cell-based; settings: Homo sapiens; OVCAR-5, 10^–5 Molar; read-out: Percent growth inhibition
Experimental: as §1, §2, §3

HS 578T = assay: NCI-60 SRB screen; format: cell-based; settings: Homo sapiens, 10^–5 Molar, read-out: Percent growth inhibition
Experimental: as §1, §2, §3

IGROV1 = assay: NCI-60 SRB screen; format: cell-based; settings: Homo sapiens, IGROV-1; IGROV1, 10^–5 Molar; read-out: Percent growth inhibition
Experimental: as §1, §2, §3

RXF 393 = assay: NCI-60 SRB screen; format: cell-based; settings: Homo sapiens, 48 h; RXF 393, 10^–5 Molar; read-out: Percent growth inhibition
Experimental: as §1, §2, §3

SNB-19 = assay: NCI-60 SRB screen; format: cell-based; settings: Homo sapiens; SNB-19, 10^–5 Molar; read-out: Percent growth inhibition
Experimental: as §1, §2, §3

| SMILES | melting point [°C] | activity at 10 µM [1] [%] | inhibition at 10 µM (UO-31) [%] | inhibition at 10 µM (SF-268) [%] | inhibition at 10 µM (SW-620) [%] | inhibition at 10 µM (MDA-MB-468) [%] | inhibition at 10 µM (CAKI-1) [%] | inhibition at 10 µM (NCI-H226) [%] | inhibition at 10 µM (UACC-62) [%] | inhibition at 10 µM (LOX IMVI) [%] | inhibition at 10 µM (SNB-75) [%] | further results |
| --- | --- | --- | --- | --- | --- | --- | --- | --- | --- | --- | --- | --- |
| CCn1cc(C(=O)O)c(=O)c2cc(F)c(N3CCN(C=O)C(C)C3)c(F)c21 (stereo not shown) [Compound 6, 1-Ethyl-6,8-difluoro-7-(4-formyl-3-methylpiperazin-1-yl)-4-oxo-1,4-dihydroquinoline-3-carboxylic acid] | 289 to 291 | 103 | 12.9 | 2.98 | 3.48 | 2.93 | 4.66 | 4.91 | 7.29 | 6.49 | 5.57 | inhibition at 10 µM (NCI-H322M): 2.38%; inhibition at 10 µM (leukemia SR): 27.8%; inhibition at 10 µM (MDA-MB-231/ATCC): 0.72%; inhibition at 10 µM (786-0): 1.77% |
| CCn1cc(C(=O)O)c(=O)c2cc(F)c(N3CCN(CC(=O)Nc4ccc(S(=O)(=O)Nc5nccc(C)n5)cc4)C(C)C3)c(F)c21 (stereo not shown) [Compound 5f, 1-Ethyl-6,8-difluoro-7-(3-methyl-4-(2-((4-(N-(4-methylpyrimidin-2-yl)sulfamoyl)phenyl)amino)-2-oxoethyl)piperazin-1-yl)-4-oxo-1,4-dihydroquinoline-3-carboxylic acid] | 247 to 249 | 102 | 16.7 | 1.74 | 3.4 | 3.63 | 11.4 | 2.92 | 5.79 | 4.41 | 4.26 | inhibition at 10 µM (T-47D): 1.12%; inhibition at 10 µM (PC-3): 2.04%; inhibition at 10 µM (SN12C): 1.96%; inhibition at 10 µM (MCF7): 3.33%; inhibition at 10 µM (SF-539): 0.79%; inhibition at 10 µM (melanoma SK-MEL-5): 193%; inhibition at 10 µM (OVCAR-5): 1.48%; inhibition at 10 µM (HS 578T): 0.4%; inhibition at 10 µM (IGROV1): 0.3%; inhibition at 10 µM (RXF 393): 0.98%; inhibition at 10 µM (SNB-19): 1.26% |
